Values of other authors, collected in paper PMC8625207, “Antikinetoplastid Activity of Sesquiterpenes Isolated from the Zoanthid Palythoa aff. clavata” (Pharmaceuticals, 2021).

Test system: T. brucei rhodes
Design: method as in PMID 19513006
Conditions: cited from earlier work

C=C1C(=O)OC2C1CCC1(C)C(O)CCC(=C)C21 (stereo not shown) [compound 19]
selectivity against T. brucei rhodes: high selectivity
